According to US7919488B2, “Therapeutic compounds” (Pfizer Inc., priority 2006, dated 2011):
Where a name gives a salt, the structure may show the parent alone.

Legend:
Type in all cases: biochemical
[1] = biological target: T1, CYP3A4 (Homo sapiens, UniProt P08684); experiment: IC50 against CYP3A4 by inhibition of testosterone metabolism in human liver microsomes; details: 0.1 mg/mL human liver microsomes, 25 μM testosterone, 1 mM NADPH, 6-β-OH-testosterone production, eight minutes; read-out: IC50, μM (HLM, testosterone)
T1 construct: 0.1 mg/mL human liver microsomes; from tissue; host or cells: human liver microsomes
T1 sequence (P08684 whole entry): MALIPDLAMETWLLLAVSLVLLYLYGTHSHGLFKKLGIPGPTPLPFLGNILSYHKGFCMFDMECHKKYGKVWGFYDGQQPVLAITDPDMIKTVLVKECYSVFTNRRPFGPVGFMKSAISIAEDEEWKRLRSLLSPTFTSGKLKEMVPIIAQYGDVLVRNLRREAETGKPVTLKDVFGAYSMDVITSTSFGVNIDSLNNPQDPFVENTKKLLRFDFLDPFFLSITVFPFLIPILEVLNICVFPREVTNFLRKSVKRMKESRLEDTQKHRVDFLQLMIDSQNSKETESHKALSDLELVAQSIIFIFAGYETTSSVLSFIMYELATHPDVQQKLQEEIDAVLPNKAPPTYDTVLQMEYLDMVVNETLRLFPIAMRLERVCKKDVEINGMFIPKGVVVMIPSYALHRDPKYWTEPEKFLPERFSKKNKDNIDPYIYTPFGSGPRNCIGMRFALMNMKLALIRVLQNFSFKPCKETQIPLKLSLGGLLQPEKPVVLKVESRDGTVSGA
Method: 2. Determination of IC50 Against CYP3A4 by Measurement of Inhibition of Testosterone Metabolism
This assay was performed using a standard 96 well plate design. […] Quantitation of metabolite peak area ratio against an internal standard is determined by LC-MS/MS analysis. The production of 6-β-OH-testosterone from testosterone metabolism is determined after incubation for eight minutes by comparison to a standard curve generated for the metabolite
(§1) Samples were analyzed in the MRM mode using a Sciex API 3000 mass spectrometer (Applied Biosystems, Foster City, Calif.) with a Paradigm MS4 binary pump (Michrom BioResources Inc., Auburn, Calif.) and a LEAP CTC PAL autosampler (LEAP Technologies, Carrboro, N.C.). A Phenomenex Synergi, 4μ, Polar-RP, 10×2.0 mm column (Phenomenex, Torrance, Calif.) was used for separation with a mobile phase composition of: 0.1% formic acid in water (A) and: 0.1% formic acid in methanol (B). The following gradient was used: […]
(§2) The sample injection volume was 10 μL and flow was split post-column with 0.4 mL/min going to the mass spectrometer. Analysis was performed using the following API 3000 mass spectrometer settings: […]

[2] = biological target: T1, CYP3A4; experiment: IC50 against CYP3A4 by inhibition of midazolam metabolism in human liver microsomes; details: 0.1 mg/mL human liver microsomes, 2 μM midazolam, 1 mM NADPH, 1-hydroxymidazolam production, eight minutes; read-out: IC50, μM (HLM, midazolam)
Method: 3. Determination of IC50 Against CYP3A4 by Measurement of Inhibition of Midazolam Metabolism
This assay was performed using a standard 96 well plate design. […] The incubation substrate mix contains 2 μM midazolam, 0.1 mg/mL human liver microsomes, 1 mM NADPH, and potassium phosphate buffer (100 mM, pH 7.4). Quantitation of metabolite peak area ratio against internal standard is determined by LC-MS/MS analysis. The production of 1-hydroxymidazolam from midazolam metabolism is determined after incubation for eight minutes by comparison to a standard curve generated for the metabolite.
as §1, §2

[3] = biological target: T2, recombinant CYP3A4-b5 enzyme (Baculosomes®) (Homo sapiens, UniProt P08684); experiment: Kiapp against recombinant CYP3A4 enzyme (Baculosomes), BFC substrate; details: recombinant CYP3A4-b5 (Invitrogen), 5 uM BFC, 200 uM NADPH, pre-incubation at least 30 minutes, pH 7.0, room temperature
T2 construct: purchased Invitrogen (Carlsbad, Calif.)
T2 sequence (P08684 whole entry): as above
Method: 1. Determination of Compound Kiapp
A determination of the Kiapp of the compounds of the invention against recombinant CYP3A4 enzyme was performed as follows. The assay was performed in a 100 mM sodium phosphate buffer pH 7.0, 5 mM TCEP and containing 2% dimethylformamide (final concentration) upon addition of substrate and inhibitor. A typical reaction for the determination of Kiapp values was carried at room temperature in a solid black Costar u-bottom 96-well polypropylene plate. […] When pre-incubation was completed (˜30 min), the reaction was initiated by adding NADPH (200 uM, final concentration), and 7-benzyloxy-4-(trifluoromethyl)-coumarin (BFC) (5 uM, final concentration). The oxidation of the coumarin substrate was recorded by a 96-well plate reader POLARstar (BMG LABTECH, Offenburg, Germany).
The initial reaction velocities were measured during the first 5 min of the reaction when the release of the fluorescent product is linear with time, in the absence and in the presence of various concentrations of inhibitors.
The fluorescent substrate BFC was purchased from Sigma (St Louis, Mo.). Two commercial sources of recombinant enzymes were used in this study: recombinant CYP3A4-b5 enzyme (Baculosomes®) was purchased from Invitrogen (Carlsbad, Calif.) and the recombinant CYP3A4+b5 enzyme (Supersomes®) was purchased from BD Biosciences (Woburn, Mass.).

| IC50 [1] | IC50 [2] | Ki [3] | SMILES |
| --- | --- | --- | --- |
| > 0.75 µM | 0.446 µM | > 1 µM | O=C(Cn1nc(-c2c[nH]cn2)cc1Cc1ccc(F)cc1)N1CCC[C@@H](O)C1 [Example 40, (3R)-1-{[5-(4-fluorobenzyl)-3-(1H-imidazol-4-yl)-1H-pyrazol-1-yl]acetyl}piperidin-3-ol] |
| 0.015 µM | 0.016 µM | 0.0728 µM | Cc1c(CNC(=O)Cn2nc(-c3ccncc3)cc2Cc2ccc(F)cc2)cnn1C [Example 89, N-[(1,5-dimethyl-1H-pyrazol-4-yl)methyl]-2-[5-(4-fluorobenzyl)-3-pyridin-4-yl-1H-pyrazol-1-yl]acetamide] |
| 0.0225 µM | 0.0466 µM | 0.105 µM | COCCn1nc(-c2ccncc2)cc1Cc1ccc(F)cc1 [Example 31, 4-(5-(4-fluorobenzyl)-1-(2-methoxyethyl)-1H-pyrazol-3-yl)pyridine] |
| 0.0203 µM | 0.0555 µM | 0.18 µM | NC(=O)c1noc(Cn2nc(-c3ccncc3)cc2Cc2ccc(F)cc2)n1 [Example 69, 5-{[5-(4-fluorobenzyl)-3-pyridin-4-yl-1H-pyrazol-1-yl]methyl}-1,2,4-oxadiazole-3-carboxamide] |
| 0.028 µM | 0.031 µM | 0.0843 µM | CC(NC(=O)Cn1nc(-c2ccncc2)cc1Cc1ccc(F)cc1)c1cnn(C)c1 (stereo not drawn) [Example 85, 2-[5-(4-fluorobenzyl)-3-pyridin-4-yl-1H-pyrazol-1-yl]-N-[1-(1-methyl-1H-pyrazol-4-yl)ethyl]acetamide] |
| 0.013 µM | 0.018 µM | 0.0571 µM | Cc1cc(CNC(=O)Cn2nc(-c3ccncc3)cc2Cc2ccc(F)cc2)on1 [Example 86, 2-[5-(4-fluorobenzyl)-3-pyridin-4-yl-1H-pyrazol-1-yl]-N-[(3-methylisoxazol-5-yl)methyl]acetamide] |
| 0.021 µM | 0.086 µM | 0.12 µM | CN(C)C(=O)c1noc(Cn2nc(-c3ccncc3)cc2Cc2ccc(F)cc2)n1 [Example 27, 5-{[5-(4-fluorobenzyl)-3-pyridin-4-yl-1H-pyrazol-1-yl]methyl}-N,N-dimethyl-1,2,4-oxadiazole-3-carboxamide (maleic acid salt)] |
| 0.0235 µM | 0.015 µM | 0.0458 µM | CN(C(=O)Cn1nc(-c2ccncc2)cc1Cc1ccc(F)cc1)[C@H]1CC[C@H](O)CC1 [Example 83, 2-[5-(4-fluorobenzyl)-3-pyridin-4-yl-1H-pyrazol-1-yl]-N-(trans-4-hydroxycyclohexyl)-N-methylacetamide] |
| 0.065 µM | 0.064 µM | 0.0516 µM | CCc1nc(CNC(=O)Cn2nc(-c3ccncc3)cc2Cc2ccc(F)cc2)no1 [Example 80, N-[(5-ethyl-1,2,4-oxadiazol-3-yl)methyl]-2-[5-(4-fluorobenzyl)-3-pyridin-4-yl-1H-pyrazol-1-yl]acetamide] |
| 0.033 µM | 0.01 µM | 0.085 µM | O=C(Cn1nc(-c2ccncc2)cc1Cc1ccc(F)cc1)N1CCC(N2CCCC2=O)CC1 [Example 5, 1(1-{[5-(4-fluorobenzyl)-3-pyridin-4-yl-1H-pyrazol-1-yl]acetyl}piperidin-4-yl)pyrrolidin-2-one] |
| 0.082 µM | 0.108 µM | 0.378 µM | O=C(Cn1nc(-c2ccncc2)cc1Cc1ccc(F)cc1)N1CC(O)C1 [Example 98, 1-{[5-(4-fluorobenzyl)-3-pyridin-4-yl-1H-pyrazol-1-yl]acetyl}azetidin-3-ol] |
| 0.027 µM | 0.043 µM | 0.103 µM | CC(C)NC(=O)Cn1nc(-c2ccncc2)cc1Cc1ccc(F)cc1 [Example 58, 2-[5-(4-fluorobenzyl)-3-pyridin-4-yl-1H-pyrazol-1-yl]-N-isopropylacetamide] |
| 0.072 µM | 0.084 µM | 0.166 µM | CCC(=O)N1CC(n2nc(-c3ccncc3)cc2Cc2ccc(F)cc2)C1 [Example 22, 1-(3-(5-(4-fluorobenzyl)-3-(pyridin-4-yl)-1H-pyrazol-1-yl)azetidin-1-yl)propan-1-one] |
| 0.056 µM | 0.071 µM | 0.175 µM | CC(O)Cn1nc(-c2ccncc2)cc1Cc1ccc(F)cc1 (stereo not drawn) [Example 52, 1-[5-(4-fluorobenzyl)-3-pyridin-4-yl-1H-pyrazol-1-yl]propan-2-ol] |
| 0.015 µM | 0.007 µM | 0.0241 µM | CCCN(C)C1(C(N)=O)CCN(C(=O)Cn2nc(-c3ccncc3)cc2Cc2ccc(F)cc2)CC1 [Example 92, 1-{[5-(4-fluorobenzyl)-3-pyridin-4-yl-1H-pyrazol-1-yl]acetyl}-4-[methyl(propyl)amino] piperidine-4-carboxamide] |
| 0.033 µM | 0.013 µM | 0.0297 µM | CCC(=O)N(C)C1CCN(C(=O)Cn2nc(-c3ccncc3)cc2Cc2ccc(F)cc2)CC1 [Example 10, N-(1-{[5-(4-fluorobenzyl)-3-pyridin-4-yl-1H-pyrazol-1-yl]acetyl}piperidin-4-yl)-N-methylpropanamide] |
| 0.048 µM | 0.04 µM | 0.178 µM | C[C@@H](O)CNC(=O)Cn1nc(-c2ccncc2)cc1Cc1ccc(F)cc1 [Example 63, 2-[5-(4-fluorobenzyl)-3-pyridin-4-yl-1H-pyrazol-1-yl]-N-[(2R)-2-hydroxypropyl]acetamide] |
| 0.052 µM | 0.042 µM | 0.074 µM | O=C(CCN1CCOCC1)N1CC(n2nc(-c3ccncc3)cc2Cc2ccc(F)cc2)C1 [Example 67, 4-(3-{3-[5-(4-fluorobenzyl)-3-pyridin-4-yl-1H-pyrazol-1-yl]azetidin-1-yl}-3-oxopropyl)morpholine] |
| 0.018 µM | 0.011 µM | 0.0702 µM | CNC(=O)N(C)C1CCN(C(=O)Cn2nc(-c3ccncc3)cc2Cc2ccc(F)cc2)CC1 [Example 117, 1-(1-{[5-(4-fluorobenzyl)-3-pyridin-4-yl-1H-pyrazol-1-yl]acetyl}piperidin-4-yl)-1,3-dimethylurea] |
| 0.068 µM | 0.063 µM | 0.124 µM | O=C(Cn1nc(-c2ccncc2)cc1Cc1ccc(F)cc1)NCc1ncc(F)cn1 [Example 81, 2-[5-(4-fluorobenzyl)-3-pyridin-4-yl-1H-pyrazol-1-yl]-N-[(5-fluoropyrimidin-2-yl)methyl]acetamide] |
| 0.012 µM | < 0.003 µM | 0.00841 µM | CC(C)C(=O)N(C)C1CCN(C(=O)Cn2nc(-c3ccncc3)cc2Cc2ccc(F)cc2)CC1 [Example 11, N-(1-{[5-(4-fluorobenzyl)-3-pyridin-4-yl-1H-pyrazol-1-yl]acetyl}piperidin-4-yl)-N,2-dimethylpropanamide] |
| 0.114 µM | 0.046 µM | 0.19 µM | CNC1CCN(C(=O)Cn2nc(-c3ccncc3)cc2Cc2ccc(F)cc2)C1 (stereo not drawn) [Example 74, 1-{[5-(4-fluorobenzyl)-3-pyridin-4-yl-1H-pyrazol-1-yl]acetyl}-N-methylpyrrolidin-3-amine] |
| 0.041 µM | 0.021 µM | 0.156 µM | NC(=O)[C@@H]1CCC[C@@H]1NC(=O)Cn1nc(-c2ccncc2)cc1Cc1ccc(F)cc1 [Example 84, (1R,2S)-2-({[5-(4-fluorobenzyl)-3-pyridin-4-yl-1H-pyrazol-1-yl]acetyl}amino)cyclo-pentanecarboxamide] |
| 0.015 µM | 0.061 µM | 0.12 µM | OCCCn1nc(-c2ccncc2)cc1Cc1ccc(F)cc1 [Example 32, 3-(5-(4-fluorobenzyl)-3-(pyridin-4-yl)-1H-pyrazol-1-yl)propan-1-ol] |
| 0.0305 µM | 0.0792 µM | 0.608 µM | Cc1nnc(Cn2nc(-c3ccncc3)cc2Cc2ccc(F)cc2)o1 [Example 28, 4-{5-(4-fluorobenzyl)-1-[(5-methyl-1,3,4-oxadiazol-2-yl)methyl]-1H-pyrazol-3-yl}pyridine] |
